# Experimental data from patent US11771645B2, “Transdermally absorbable base material containing lipid peptide compound” (KYUSHU UNIVERSITY, priority 2015, dated 2023).
# System: Yucatan Micro Pig (YMP) skin
# Assay: Skin permeability test, fluorescently-labeled insulin in skin extract and receiver solution, vertical Franz type diffusion cell (Examples 8, 12, 14, 18)
# Type: in vitro ADME
# Procedure: Yucatan Micro Pig (YMP) skin (by Charles River Laboratories Japan, Inc.) stored at −80° C. was thawed at room temperature (roughly 25° C.), and was then subjected to the fat removal (to have a skin thickness of roughly 2 mm). Thus, the YMP skin of roughly 2 cm square was prepared.
# To a receiver phase of the vertical Franz type diffusion cell (effective area: 0.785 cm^2), 5.0 mL of phosphate buffered saline (PBS of pH 7.4, stirred at 500 rpm) was added, and the above-described YMP skin (temperature of PBS on skin surface: 32.5° C.) was set. […]
# The skin was taken out after 24 hours, and washed with the extractant [solution of PBS, acetonitrile, and methanol mixed at 2:1:1 (v/v/v)]. […] The extracted solution thus obtained was filtered using a PTFE filter (0.20 μm), and then, the quantity of the fluorescently-labeled insulin in the solution was determined using the fluorescence spectrometer LS-55 (manufactured by PerkinElmer, Inc.) (each calculated as the average value of three tests). The fluorescence spectrometer measurement was made at an excitation wavelength of 495 nm and a measurement wavelength of 521 nm. […]
# The skin was taken out after 24 hours, and washed with the extractant [solution of PBS, acetonitrile, and methanol mixed at 2:1:1 (v/v/v)]. […] The fluorescence spectrometer measurement was made at an excitation wavelength of 495 nm and a measurement wavelength of 521 nm. […]
substance,measurement,value
polyoxyethylene lauryl ether,transdermal absorption enhancing effect of insulin,no transdermal absorption enhancing effect
